Measurements taken from patent publication US20160207970A1, “POLYPEPTIDE FOR THE PROTECTION AGAINST HEART ISCHEMIA-REPERFUSION INJURY” (Pharis Biotech GmbH, priority 2011, published 2016).
“Also recorded” adds a separate entry of the source. Like-named read-outs stand apart in the source and are kept apart here. Where no end group is shown, it is not given here.

Tests used:
in vitro rat heart = conditions: cited from earlier work
[1] = tested on: isolated, retrogradely perfused rat hearts; test: Global ischemia (35 min)-reperfusion (120 min) in isolated, retrogradely perfused (Langendorff) rat hearts; peptide postconditioning; conditions: for LVD AUC / LVD-lowering effect in the presence of exendin(9-39): N-Ac-GLP-1(7-34)amide 0.3 nM + exendin(9-39) 3 nM versus control ischemia; for Infarct size (% IS/AAR): 15 min at onset of reperfusion; for Left ventricle developed pressure (LVDEV) AUC / Rate-pressure product (RPP) AUC / Left ventricle diastolic pressure (LVD) AUC over last 60 min of reperfusion / post-ischemic diastolic contracture: postconditioning 0.3 nM versus control ischemia
Method: Global ischemia (35 min)-reperfusion (120 min) was applied in isolated, retrogradely perfused rat hearts. Peptides were present for 15 min at the onset of reperfusion. Cardiac function parameters (beats per minute, left ventricle developed and diastolic pressures, rate-pressure product) throughout the course of the perfusion were measured. Infarct size was determined on collected hearts by 2,3,5-tripehyltetrazolium chloride staining and planimetry.
(§1) For anesthesia, a mixture of midazolam (2.5 mg/kg), fluanisone (2.5 mg/kg) and fentanyl citrate (0.08 mg/kg) was administered subcutaneously. Heparin ([…]. per kg) was administered through the femoral vein. The animals were ventilated via a tracheotomy with a mixture of 35% O2/65% N2 and the chest cavity was opened. The excised heart was immediately placed in an ice-cold Krebs Henseleit buffer. The heart was quickly mounted onto the Langendorff perfusion system (ADInstruments, UK) and perfused with modified Krebs-Henseleit solution (NaCl 118.5 mM, KCl 4.7 mM, NaHCO3 25.0 mM, MgSO4 1.2 mM, CaCl2 1.4 mM, glucose 11.1 mM), equilibrated to pH 7.4 with a gas mixture of 5% CO2/95% 02, at 37° C. The left auricle was removed and a size 7 balloon (ADInstruments) was inserted into the left ventricle through the left atrium and adjusted to a diastolic pressure of 4-10 mmHg. Perfusion pressure was set to 70 mm Hg and maintained at this average value by a servo control system (ML175 STH Pump Controller, ADInstruments) continually adjusting the peristaltic pump revolutions according to flow resistance. The hearts were allowed to stabilize for 20 min prior to recording of left ventricle functional parameter baseline values over the next 10 min: pressure (systolic, LVS; diastolic, LVD; developed, LVDEV=LVS-LVD), beats per minute (BPM) and rate-pressure product (RPP). Power Lab 8/30 system and Chart 5 Pro Software from ADInstruments were used for these recordings.
(§2) Hearts were also excluded if ventricular fibrillation lasting more than 5 min occurred during reperfusion.
FIG. 1 outlines the time course for normoxic (A) and ischemia-reperfusion (B) experiments. The experimental groups were: control normoxia, no peptide addition; normoxia, N—Ac-GLP-1(7-34)amide 0.3 nM; control ischemia-reperfusion (IR), no peptide addition; IR, N—Ac-GLP-1(7-34)amide 0.3 nM; IR, N—Ac-GLP-1(7-34)amide 0.3 nM+exendin(9-39) 3 nM; IR, exendin(9-39) 3 nM. […] “Stab” indicates 30 min stabilization period. When present, peptides were added for 15 min, from the beginning of the last 120 min of perfusion (A) or reperfusion (B). Total perfusion time was always 185 min, consisting of 30 min stabilization, followed by 155 min of normoxic perfusion (FIG. 1A) or 35 min global ischemia-120 min reperfusion (FIG. 1B).
Following reperfusion, the hearts were processed for 2, 3, 5-triphenyltetrazolium chloride staining and planimetric infarct size determination, as described earlier. Quantitation was done by an investigator blinded to the experimental conditions. Infarct size (IS) was expressed as a percentage of total ischemic area at risk (AAR) (% IS/AAR).
All values are presented as means, with SEM given in parantheses. One-way ANOVA with Dunnett's post hoc test (GraphPad Prism® 5) was used to compare treatment results to control conditions. P<0.05 was considered significant.

[2] = tested on: isolated, retrogradely perfused rat hearts; test: Normoxic perfusion of isolated rat hearts (no preceding ischemia); conditions: 0.3 nM between 35 and 50 min of perfusion
Method: as §1, §2
FIG. 1 outlines the time course for normoxic (A) and ischemia-reperfusion (B) experiments. The experimental groups were: control normoxia, no peptide addition; normoxia, N—Ac-GLP-1(7-34)amide 0.3 nM; control ischemia-reperfusion (IR), no peptide addition; IR, N—Ac-GLP-1(7-34)amide 0.3 nM; IR, N—Ac-GLP-1(7-34)amide 0.3 nM+exendin(9-39) 3 nM; IR, exendin(9-39) 3 nM. […] “Stab” indicates 30 min stabilization period. […]

[3] = listed as N—Ac-GLP-1-(7-34)amide
[4] = listed as N—Ac-GLP-1(7-34)-amide

Substance: GLP-1 (HAEGTFTSDVSSYLEGQAAKEFIAWLVKGR; ends and bridges not checked; UniProt P01275 98-127, looked up) [natural hormone GLP-1]
- Effect on myocardial infarction (in vitro rat heart; GLP-1 alone): did not decrease
- Effect on myocardial infarction (in vitro rat heart; GLP-1 in combination with the GLP-1 breakdown inhibitor valine pyrrolidide (VP)): significant reduction

Substance: N—Ac-GLP-1(7-34)amide (Ac-HAEGTFTSDVSSYLEGQAAKEFIAWLVK-NH2) [N-terminally acetylated, C-terminally truncated analogue of GLP-1]
- Trend towards LVDEV improvement in the presence of exendin(9-39) ([1]; N-Ac-GLP-1(7-34)amide 0.3 nM + exendin(9-39) 3 nM): abolished
- LVD AUC / LVD-lowering effect in the presence of exendin(9-39) [1]: blocked
- LVD AUC / LVD-lowering effect in the presence of exendin(9-39) [1, 3]: not affected
- Infarct size (% IS/AAR) ([1]; N-Ac-GLP-1(7-34)amide 0.3 nM in the presence of exendin(9-39) 3 nM, mean): 21.4%
- Infarct size-limiting action in the presence of GLP-1 receptor antagonist exendin(9-39) ([1]; co-administration of exendin(9-39) 3 nM): abolished
- Infarct size (IS) as percentage of area at risk (% IS/AAR) ([1]; peptide 0.3 nM for 15 min at onset of reperfusion, mean, control ischemia-reperfusion without peptide 24.8% / 28.4%): 11.4%
- Left ventricle developed pressure (LVDEV) AUC [1]: did not affect
- Rate-pressure product (RPP) AUC [1]: did not affect
- Left ventricle diastolic pressure (LVD) AUC over last 60 min of reperfusion / post-ischemic diastolic contracture ([1]; P<0.05): diminished diastolic hypercontracture; also recorded: significant decrease
- Left ventricle diastolic pressure (LVD) AUC over last 60 min of reperfusion / post-ischemic diastolic contracture ([1]; P<0.05, listed as N—Ac-GLP-1(7-34)-amide): diminished significantly
- Left ventricle diastolic pressure (LVD) AUC over last 60 min of reperfusion / post-ischemic diastolic contracture ([1]; P<0.05, listed as N—Ac-GLP-1-(7-34)amide): significantly decreased
- Relative decrease in infarct size ([1]; postconditioning 0.3 nM versus control ischemia-reperfusion): approximately 54%
- Left ventricle developed pressure (LVDEV) AUC [1, 4]: no significant effect
- Rate-pressure product (RPP) AUC [1, 4]: no significant effect
- Left ventricle developed pressure (LVDEV) AUC [1, 3]: did not increase
- Rate-pressure product (RPP) AUC [1, 3]: did not increase
- Effect on infarct size (in words) ([1]; postconditioning 0.3 nM versus no peptide, P<0.05): diminished infarct size; also recorded: significant decrease
- Functional heart parameters (BPM, LVDEV, LVD, RPP) under normoxic perfusion [2]: not affected
- Functional heart parameters (BPM, LVDEV, LVD, RPP) under normoxic perfusion [2, 4]: nor did it affect
- Functional heart parameters (BPM, LVDEV, LVD, RPP) under normoxic perfusion [2, 3]: No effect

Substance: exendin(9-39) [reference compound]
- LVD AUC over last 60 min of reperfusion ([1]; exendin(9-39) 3 nM alone versus control ischemia): not affected
- Infarct size (% IS/AAR) ([1]; exendin(9-39) 3 nM alone, mean): 21.7%
- Effect on infarct-limiting actions of GLP-1 (in vitro rat heart; exendin(9-39) given with GLP-1): abolish
